# Experimental data from patent US7544805B2 (Chemagis Ltd., priority 2004, dated 2009).
# Experiments:
# [1] = Retention of amorphous character after pressing (powder X-ray diffraction); assay type: physicochemical; conditions: pressed at 10,000 Kg/cm^3 for 1 minute; X-ray diffractogram
# Method: X-ray diffraction data were acquired using a PHILIPS X-ray diffractometer model PW1050-70. System description: Kα1=1.54178 Å, voltage 40 kV, current 28 mA, diversion slit=1°, receiving slit=0.2 mm, scattering slit=1° with a Graphite monochromator. Experiment parameters: pattern measured between 2θ=4° and 2θ=30° with 0.05° increments; count time was 0.5 second per increment.
# The X-ray analysis of the residue gave a featureless diffractogram with a broad peak centered at 2θ about 22°, showing the residue was amorphous. The residue was pressed at 10,000 Kg/cm^3 for 1 minute.
# The residue was then pressed at 10,000 Kg/cm3 for 1 minute.
# [2] = Bulk density of the residue; assay type: physicochemical; conditions: residue after drying
# Description: The solution was then freeze dried (lyophilized), producing a residue with a bulk density of 0.061 gram/cm^3.
# The solution was then spray-dried, producing a residue with a bulk density of 0.269 gram/cm^3.
amorphous character after pressing [1],bulk density [2] [gram/cm^3],Compound
remained amorphous,0.269,"CC(C)(O)c1ccccc1CC[C@@H](SCC1(CC(=O)[O-])CC1)c1cccc(/C=C/c2ccc3ccc(Cl)cc3n2)c1.[Na+] [Example 1, Amorphous Montelukast Sodium]"
–,0.061,"CC(C)(O)c1ccccc1CC[C@@H](SCC1(CC(=O)[O-])CC1)c1cccc(/C=C/c2ccc3ccc(Cl)cc3n2)c1.[Na+] [Reference Example 1, Amorphous Montelukast Sodium, reference compound]"
